Source: ChEMBL document CHEMBL2380286, “Synthesis, characterization and anti-tumor activity of novel thymoquinone analogs against pancreatic cancer” (2013)
Calls of active or inactive are those of the source. No cut-off for these calls is given here.

What was measured:
[1] = test system: BXPC-3; assay: Cytotoxicity against human BxPC3 cells at 10 uM after 72 hrs by MTT assay; type: functional, cell-based
[2] = test system: MIA PaCa-2; assay: Chemo-sensitizing activity in human MIAPaCa2 cells assessed as potentiation of gemcitabine-induced cytotoxicity at 2.5 uM after 72 hrs by MTT assay; type: functional, cell-based
[3] = test system: MIA PaCa-2; assay: Induction of apoptosis in human MIAPaCa2 cells at 10 uM after 72 hrs by Histone DNA ELISA; type: functional, cell-based
[4] = test system: MIA PaCa-2; assay: Cytotoxicity against human MIAPaCa2 cells at 5 to 25 uM after 72 hrs by MTT assay; type: functional, cell-based
[5] = test system: MIA PaCa-2; assay: Cytotoxicity against human MIAPaCa2 cells at 0.5 uM after 72 hrs by MTT assay; type: functional

Compound	Activity [1]	Activity [2]	Activity [3]	Activity [4]	Activity [5]
CC1=C(N)C(=O)C(C(C)C)=CC1=O	Active	–	–	–	–
CC1=C(/N=C/c2ccc(F)c(F)c2F)C(=O)C(C(C)C)=CC1=O	Active	inactive	Active	–	–
CC1=C(/N=C/c2ccc(O)c(O)c2O)C(=O)C(C(C)C)=CC1=O	Active	Active	Active	Active	–
Nc1ccn([C@@H]2O[C@H](CO)[C@@H](O)C2(F)F)c(=O)n1 [GEMCITABINE]	–	–	–	–	>50%
